Measurements from US8188089B2, “Tylophorine analogs as antitumor agents” (The University of North Carolina at Chapel Hill, priority 2006, dated 2012).
Structures can show the parent of a compound that is named as a salt.

How the values were obtained:
[1] = tested on: human A549 lung cancer cell line; assay: Cell growth inhibition assay (SRB), Example 2, A549; type: cell-based
Source text: Cell Growth Inhibition Assay. The sulforhodamine B assay was used according to the procedures developed and validated at NCI. […] The values were interpolated from dose-response data.

KB (nasopharyngeal) = assay: Cell growth inhibition assay (SRB), Example 2, KB; type: cell-based, human; conditions: Table 6, 72-h continuous treatment
Source text: (§1) Drug-Resistance Study. Twelve active compounds [including four hydrochloride salts (18b, 22b, 24b, 32b) of corresponding active free bases (18a, 22a, 24a, 32a)] were further screened against an extended panel of human tumor cell lines including DU-145 (prostate), ZR-751 (breast), KB (nasopharyngeal), and KB-VIN (multidug-resistant KB subline) in order to explore their antitumor spectra and drug-resistance profiles. Four compounds were used as reference compounds. Antofine is a positional isomer of tylophorine isolated from Asclepiadaceae by Dr. T. S. Wu in Taiwan (Wu, P. L. et al., Heterocycles 2002; 57:2401). […] Doxorubicin (Adriamycin), vincristine, and etoposide (VP-16, Vepesid®) are widely used anticancer agents for treating a range of solid tumors.
(§2) Cell Growth Inhibition Assay. The sulforhodamine B assay was used according to the procedures developed and validated at NCI. The in vitro anticancer activities are expressed as ED50 values, which is the test compound concentration (μM) that reduced the cell number by 50% after 72-h of continuous treatment. The values were interpolated from dose-response data. Each test was performed in triplicate with variation less than 5%. The ED50 values determined in each of independent tests varied less than 10%. Compound stock solutions were prepared in DMSO with the final solvent concentration ≦1% DMSO (v/v), a concentration without effect on cell replication. The cells were cultured at 37° C. in RPMI-1640 supplemented with 25 mM N-2-hydroxyethylpiperazine-N′-2-ethanesulfonic acid (HEPES), […], 10% (v/v) fetal bovine serum, and 100 μg/mL kanamycin in a humidified atmosphere containing 5% CO2.

DU-145 (prostate) = assay: Cell growth inhibition assay (SRB), Example 2, DU-145; type: cell-based, human; conditions: Table 6, 72-h continuous treatment
Source text: as §1, §2

ZR-751 (breast) = assay: Cell growth inhibition assay (SRB), Example 2, ZR-751; type: cell-based, human; conditions: Table 6, 72-h continuous treatment
Source text: as §1, §2

[2] = tested on: KB-VIN (multidug-resistant KB subline); assay: Cell growth inhibition assay (SRB), Example 2, KB-VIN; type: cell-based, human; conditions: Table 6, 72-h continuous treatment
Source text: as §1, §2

[3] = tested on: tumor cell line panel (A549, KB, DU-145, ZR-751, KB-VIN); assay: Cytotoxic activity against the whole tumor cell line panel; type: cell-based, human; conditions: all cell lines of the panel; read-out: ED50 values against the tumor cell line panel
Source text: as §1
Cell Growth Inhibition Assay. The sulforhodamine B assay was used according to the procedures developed and validated at NCI. The in vitro anticancer activities are expressed as ED50 values, which is the test compound concentration (μM) that reduced the cell number by 50% after 72-h of continuous treatment. The values were interpolated from dose-response data. Each test was performed in triplicate with variation less than 5%. The ED50 values determined in each of independent tests varied less than 10%. […]

[4] = tested on: human A549 lung cancer cell line; assay: Cell growth inhibition assay (SRB), Example 1; type: cell-based; conditions: Homo sapiens; table footnotes of Example 1; A549
Source text: Results and discussion. […] Etoposide (VP-16) was used as the reference compound.
Cell Growth Inhibition Assay. The human A549 lung cancer cell line was used for the cytotoxicity screening of PBT derivatives using the cell-based sulforhodamine B (SRB) microtitre plate assay. […] Duration of compound exposure was 3 days.

[5] = Table 6, 72-h continuous treatment, hydrochloride, read-out: EC50 (μM) A549
[6] = Homo sapiens, A549, 72 h, Table 4, ED50, 72-h continuous treatment, NA = not active, read-out: A549 (μM), in vitro anticancer activity against A549 lung cancer cells
[7] = Homo sapiens, A549, 72 h, Table 6, 72-h continuous treatment, read-out: EC50 (μM) A549

Row | Structure (SMILES) | EC50 [1, 5] | EC50 (KB (nasopharyngeal); hydrochloride) | EC50 (DU-145 (prostate); hydrochloride) | EC50 (ZR-751 (breast); hydrochloride) | EC50 ([2]; hydrochloride) | melting point | EC50 [3] | EC50 [1, 6] | EC50 [1, 7] | EC50 (KB (nasopharyngeal)) | EC50 (DU-145 (prostate); Homo sapiens, DU-145, 72 h) | EC50 (ZR-751 (breast); Homo sapiens, ZR-75-1, 72 h) | EC50 [2] | EC50 [4] | EC50 (KB (nasopharyngeal); Homo sapiens, 72 h) | EC50 ([2]; Homo sapiens, KBVIN, 72 h)
1 | COc1ccc2c(CNCCCCCCO)cc3cc4c(cc3c2c1)OCO4.Cl [Compound 22b, N-(2,3-Methylenedioxy-6-methoxy-phenanthr-9-ylmethyl)-6-aminohexanol hydrochloride] | 0.13 µM | 0.23 µM | 0.07 µM | 0.08 µM | 0.16 µM | 187 to 188 °C |  |  |  |  |  |  |  |  |  | 
2 | COc1ccc2c(CN3CCC(CO)CC3)cc3cc4c(cc3c2c1)OCO4 [Compound 24b, N-(2,3-Methylenedioxy-6-methoxy-phenanthr-9-ylmethyl)-L-4-piperidinemethanol hydrochloride] | 0.07 µM | 0.07 µM | 0.05 µM | 0.04 µM | 0.04 µM |  | < 100 nM |  |  |  |  |  |  |  |  | 
3 | COc1ccc2c(CN3CCC(CCO)CC3)cc3cc4c(cc3c2c1)OCO4 [Compound 32a, N-(2,3-Methylenedioxy-6-methoxy-phenanthr-9-ylmethyl)-4-piperidineethanol] |  |  |  |  |  | 148 to 149 °C |  | 0.15 µM | 0.15 µM | 0.42 µM | 0.15 µM | 0.03 µM | 0.5 µM |  |  | 
4 | COc1ccc2c(CN3CCC(CCO)CC3)cc3cc4c(cc3c2c1)OCO4.Cl [Compound 32b, N-(2,3-Methylenedioxy-6-methoxy-phenanthr-9-ylmethyl)-4-piperidineethanol hydrochloride] | 0.09 µM | 0.2 µM | 0.1 µM | 0.02 µM | 0.2 µM | 153 to 155 °C |  |  |  |  |  |  |  |  |  | 
5 | COc1cc([C@@H]2c3cc4c(cc3[C@@H](O[C@@H]3O[C@@H]5CO[C@@H](C)O[C@H]5[C@H](O)[C@H]3O)[C@H]3COC(=O)[C@H]23)OCO4)cc(OC)c1O [Etoposide (VP-16), Etoposide, reference compound] |  |  |  |  |  |  |  | 1.4 µM | 1.4 µM |  | 2.4 µM | 3.1 µM |  | 1400 nM | 4.8 µM | > 10 µM
